The source of these data is US20180206495A1, “SUBSTITUTED ARYL AND HETEROARYL CARBOXYLIC ACID HYDRAZIDES OR SALTS THEREOF AND USE THEREOF TO INCREASE STRESS TOLERANCE IN PLANTS” (BAYER CROPSCIENCE AKTIENGESELLSCHAFT, priority 2015, published 2018).

Structures are written as SMILES.

One experiment relates to Zea mays. The experiment can be described thus: In vivo analyses Part A: drought stress, spray application, visual damage scoring, Zea mays. The procedure: (§1) Seeds of monocotyledonous and dicotyledonous crop plants were sown in sandy loam in wood-fiber or plastic pots, covered with soil or sand and cultivated in a greenhouse under good growth conditions. The trial plants were treated at the early leaf stage (BBCH10-BBCH13). To assure uniform water supply before commencement of stress, the potted plants were supplied with water by dam irrigation prior to substance application. The inventive compounds formulated in the form of wettable powders (WP) were sprayed onto the green parts of the plants as an aqueous suspension at an equivalent water application rate of 600 l/ha with addition of 0.2% wetting agent (e.g. agrotin). Substance application was followed immediately by stress treatment of the plants. For this purpose, the wood-fiber pots were transferred in plastic inserts in order to prevent them from subsequently drying out too quickly. Drought stress was induced by gradual drying out under the following conditions: “Day”: 14 hours with illumination at ˜26-30° C. “Night”: 10 hours without illumination at ˜18-20° C. The duration of the respective stress phases was guided mainly by the condition of the stressed control plants. It was ended (by re-irrigating and transfer to a greenhouse with good growth conditions) as soon as irreversible damage was observed on the stressed control plants. The end of the stress phase was followed by an about 4-7-day recovery phase, during which the plants were once again kept under good growth conditions in a greenhouse. The duration of the recovery phase was guided mainly by when the trial plants had attained a state which enabled visual scoring of potential effects, and is therefore variable. Once this juncture was reached, the intensities of damage were scored visually in comparison to untreated, unstressed controls of the same age. The damage intensity was at first assessed in per cent. These values were then used to calculate the efficacy of the test compounds by the following formula: [formula] EF: Efficacy DIs: Damage intensity of the stressed control plants DIt: Damage intensity of the stressed plants treated with test compound The values reported in tables A-1 to A-3 below are mean values from at least one trial with at least two repeats, showing the effects of selected compounds of the general formula (I) under drought stress on various crop plants.

Experiment [1] concerns Brassica napus. The experiment can be described thus: In vivo analyses Part A: drought stress, spray application, visual damage scoring, Brassica napus. Here is the method:
as §1

In experiment [2] the test system is Brassica napus. The experiment in a line: In vivo analyses Part B: drought stress, spray application, appearance vs stressed control in categories, Brassica napus. Also on record: key: 0: no positive effect; +: slight positive effect; ++: clear positive effect; +++: strong positive effect. The procedure:
(§2) Seeds of monocotyledonous and dicotyledonous crop plants were sown in sandy loam in plastic pots, covered with soil or sand and cultivated in a greenhouse under good growth conditions. The test plants are treated at the early leaf stage (BBCH10-BBCH13). To assure uniform water supply before commencement of stress, the potted plants were supplied with water by dam irrigation prior to substance application. The inventive compounds were first formulated as wettable powders (WP) or dissolved in a solvent mixture. The further dilution was effected with water supplemented with 0.2% wetting agent (e.g. agrotin). The finished spray liquor was sprayed onto the green parts of the plant at an equivalent water application rate of 600 l/ha. Substance application was followed immediately by stress treatment of the plants. Drought stress was induced by gradual drying out under the following conditions: “Day”: 14 hours with illumination at ˜26-30° C. “Night”: 10 hours without illumination at ˜18-20° C. The duration of the respective stress phases was guided mainly by the condition of the stressed control plants. It was ended (by re-irrigating and transfer to a greenhouse with good growth conditions) as soon as irreversible damage was observed on the stressed control plants. The end of the stress phase was followed by an about 4-7-day recovery phase, during which the plants were once again kept under good growth conditions in a greenhouse. The duration of the recovery phase was guided mainly by when the trial plants had attained a state which enabled visual scoring of potential effects, and was therefore variable. Once this juncture had been reached, the appearance of the plants treated with test substances was recorded in comparison to the stressed control plants by the following categories: • 0 no positive effect • + slight positive effect • ++ clear positive effect • +++ strong positive effect In order to rule out any influence on the effects observed by any fungicidal or insecticidal action of the test compounds, it was additionally ensured that the tests proceeded without fungal infection or insect infestation. The values reported in tables B-1 and B-2 below are mean values of the results from at least three repeats. Effects of selected compounds of the general formula (I) under drought stress according to the following tables B-1 and B-2: […]

The subject of the next experiment is Triticum aestivum. The experiment in a line: In vivo analyses Part B: drought stress, spray application, appearance vs stressed control in categories, Triticum aestivum. Also on record: key: 0: no positive effect; +: slight positive effect; ++: clear positive effect; +++: strong positive effect. Here is the method: as §2

Take `CN(C)N(Cc1ncc(Cl)cc1Cl)C(=O)c1cccc(Cl)c1` [A28-35]: the “EF [%] (ZEAMX)” value in the experiment on Zea mays (dosage 250 g/ha) was over 5%. For the same compound, the “EF [%] (BRSNS)” value in the experiment with Brassica napus [1] (dosage 250 g/ha) was over 5%.
Consider `CN(C)N(Cc1ccccc1Cl)C(=O)c1ccccc1[N+](=O)[O-]` [A32-1], for which the “EF [%] (ZEAMX)” value with Zea mays (dosage 250 g/ha) is reported as over 5%.
In the case of `CN(C)N(Cc1ccc2ccccc2n1)C(=O)c1cccc([N+](=O)[O-])c1` [A33-122], the “EF [%] (ZEAMX)” value in the experiment on Zea mays (dosage 25 g/ha) is over 5%. In the experiment on Brassica napus [1] (dosage 250 g/ha), the “EF [%] (BRSNS)” value is listed as over 5%.
On to `CN(C)N(Cc1ccc2ccccc2n1)C(=O)c1cccc(C#N)c1` [A34-122], for which the “EF [%] (ZEAMX)” value in the experiment on Zea mays (dosage 25 g/ha) is reported as over 5%.
As for `CN(C)N(Cc1cccnc1C#N)C(=O)c1ccccc1I` [A36-679], the “Effect (BRSNS)” value in the experiment on Brassica napus [2] (dosage 250 g/ha) is reported as “+”. Also, the “Effect (TRZAS)” value with Triticum aestivum (dosage 250 g/ha) is recorded as “+”.
On to `CN(C)N(Cc1ccccc1Cl)C(=O)c1ccc(C#N)cc1C(F)(F)F` [A48-1], for which the “Effect (BRSNS)” value in the experiment with Brassica napus [2] (dosage 25 g/ha) is on record as “+++”. The “Effect (TRZAS)” value in the experiment on Triticum aestivum (dosage 250 g/ha) was “+”.
On the same counts, the results for `Cc1ccc(C(=O)N(Cc2nccc(Cl)c2Cl)N(C)C)c(C(F)(F)F)c1` [A50-40] are “++” and “+”.
Take `CN(C)N(Cc1ncc(C(F)(F)F)cc1Cl)C(=O)c1ccc(Cl)cc1C(F)(F)F` [A51-36]: in the experiment with Brassica napus [2] (dosage 250 g/ha), the “Effect (BRSNS)” value is “+”. Moreover, in the experiment with Triticum aestivum (dosage 25 g/ha), the “Effect (TRZAS)” value was “+”.
In the case of `CN(C)N(Cc1ccccc1C#N)C(=O)c1ccc(Cl)cc1C(F)(F)F` [A51-61], the “Effect (BRSNS)” value in the experiment on Brassica napus [2] (dosage 25 g/ha) is “++”. Further, the “Effect (TRZAS)” value with Triticum aestivum (dosage 25 g/ha) is listed as “+”.
Consider `CN(C)N(Cc1ncc(C(F)(F)F)cc1Cl)C(=O)c1ccc(F)cc1F` [A52-36], for which the “Effect (BRSNS)” value in the experiment on Brassica napus [2] (dosage 25 g/ha) is recorded as “+++”. Moreover, the “Effect (TRZAS)” value in the experiment with Triticum aestivum (dosage 250 g/ha) is recorded as “+”.
Regarding `CN(C)N(Cc1ccccc1Cl)C(=O)c1cnccc1C(F)(F)F` [B1-1], the “EF [%] (ZEAMX)” value with Zea mays (dosage 25 g/ha) is over 5%.
Take `CN(C)N(Cc1c(Cl)cccc1Cl)C(=O)c1cnccc1C(F)(F)F` [B1-7]: the “Effect (BRSNS)” value in the experiment with Brassica napus [2] (dosage 250 g/ha) was “+++”. Moreover, the “Effect (TRZAS)” value in the experiment on Triticum aestivum (dosage 250 g/ha) is listed as “+”.
On the same counts, the results for `CN(C)N(Cc1ccc(F)cc1F)C(=O)c1cnccc1C(F)(F)F` [B1-15] are “+++” and “+”.
The matching figures for `CN(C)N(Cc1c(F)cccc1F)C(=O)c1cnccc1C(F)(F)F` [B1-17]: “++” and “+”.
The matching figures for `CN(C)N(Cc1cccc(C#N)c1)C(=O)c1cnccc1C(F)(F)F` [B1-62]: “++” and “+”.
For `CN(C)N(Cc1ccc2ccccc2n1)C(=O)c1cnccc1C(F)(F)F` [B1-122], the “EF [%] (ZEAMX)” value in the experiment on Zea mays (dosage 250 g/ha) is reported as over 5%. The “EF [%] (BRSNS)” value with Brassica napus [1] (dosage 25 g/ha) is reported as over 5%.
With `CN(C)N(Cc1ccccn1)C(=O)c1cccnc1C(F)(F)C(F)(F)F` [B3-21], the “EF [%] (ZEAMX)” value in the experiment with Zea mays (dosage 25 g/ha) is listed as over 5%. Besides, in the experiment on Brassica napus [1] (dosage 250 g/ha), the “EF [%] (BRSNS)” value is given as over 5%.
`CN(C)N(Cc1ccccc1C#N)C(=O)c1ccc(C(F)(F)F)nc1` [B5-61]: the “Effect (BRSNS)” value with Brassica napus [2] (dosage 25 g/ha) is “+”. In addition, the “Effect (TRZAS)” value in the experiment on Triticum aestivum (dosage 25 g/ha) is recorded as “+”.
`CN(C)N(Cc1ccc(Cl)nc1)C(=O)c1ccc(C(F)F)nc1` [B6-94]: the “Effect (BRSNS)” value in the experiment with Brassica napus [2] (dosage 250 g/ha) is “+”. Also, the “Effect (TRZAS)” value in the experiment on Triticum aestivum (dosage 250 g/ha) is reported as “+”.
Regarding `CN(C)N(Cc1ccc(Cl)cc1)C(=O)c1ccncc1` [C1-3], in the experiment on Zea mays (dosage 25 g/ha), the “EF [%] (ZEAMX)” value is over 5%. For the same compound, in the experiment with Brassica napus [1] (dosage 250 g/ha), the “EF [%] (BRSNS)” value is over 5%.
Turning to `CN(C)N(Cc1ccccc1C#N)C(=O)c1ccncc1` [C1-61], the “EF [%] (BRSNS)” value in the experiment with Brassica napus [1] (dosage 250 g/ha) was over 5%.
For `CN(C)N(Cc1cccc(C#N)c1)C(=O)c1ccncc1` [C1-62], in the experiment on Brassica napus [1] (dosage 2.5 g/ha), the “EF [%] (BRSNS)” value was over 5%.
On to `CN(C)N(Cc1ncc(C(F)(F)F)cc1Cl)C(=O)c1ccncc1C(F)(F)F` [C2-36], for which the “EF [%] (BRSNS)” value with Brassica napus [1] (dosage 25 g/ha) was over 5%.
As for `CN(C)N(Cc1cc(C(F)(F)F)ccc1Cl)C(=O)c1ccccn1` [D1-86], in the experiment on Zea mays (dosage 250 g/ha), the “EF [%] (ZEAMX)” value is reported as over 5%. In addition, in the experiment on Brassica napus [1] (dosage 25 g/ha), the “EF [%] (BRSNS)” value is over 5%.
For `CN(C)N(Cc1ccccc1Cl)C(=O)c1cncnc1C(F)(F)Cl` [E3-1], the “Effect (BRSNS)” value in the experiment with Brassica napus [2] (dosage 25 g/ha) is “+”. Also, in the experiment on Triticum aestivum (dosage 25 g/ha), the “Effect (TRZAS)” value is “+”.
On to `CN(C)N(Cc1ccccc1C#N)C(=O)c1ccnnc1` [G1-61], for which, in the experiment on Brassica napus [2] (dosage 100 g/ha), the “Effect (BRSNS)” value is “+”. Besides, the “Effect (TRZAS)” value in the experiment with Triticum aestivum (dosage 100 g/ha) is on record as “+”.
